Experimental data as given in patent US20220370454A1, “METHODS FOR TREATING CENTRAL NERVOUS SYSTEM DISORDERS WITH MUSCARINIC RECEPTOR ACTIVATION AND ANTIPSYCHOTICS” (Karuna Therapeutics, Inc., priority 2021, published 2022).

Tests used:
Adult male C57BL/6J mice = assay: Conditioned avoidance response (CAR) assay, Example 1; assay type: in vivo; settings: for Blockade of xanomeline's effects in CAR by muscarinic antagonist: maximally active dose of xanomeline, FIG. 11, N=14; for Effect on conditioned avoidance responding (dose-response, FIG. 1): each compound alone, compiled independent studies; for Avoidance responding versus vehicle-vehicle control, drug alone: subthreshold doses alone (data not shown)
Text: In the CAR assay, mice were first trained to avoid a foot shock (i.e., crossing from one side of a shuttle box to another within 10 secs) to a performance criterion of ≥85% avoidance responses. A repeated-measures, counterbalanced design was used. Two experiments evaluated the effects of blocking central (with scopolamine) vs. peripheral (with N-methylscopolamine) muscarinic receptors. […] “Subthreshold” of “sub-efficacious” refers to doses that are lower than the therapeutically effective amount for monotherapy but which could be effective in synergy with the antipsychotics tested.
Referring to FIG. 1, the compiled data over independent studies with each compound were analyzed separately via one-way repeated-measures ANOVA. A Dunnett post-hoc test was performed and that dose group significance was only assessed against Vehicle.
Post hoc analysis vs. xanomeline alone (*) and vs. comparator dose alone (#).

male C57BL/6J mice = assay: Conditioned avoidance response (CAR) assay, Example 2 (enhanced aripiprazole formulation, two sequential injections); settings: for Average avoidance response percentages, A alone: Example 2
Experimental: Also, in Example 2, compounds were delivered as two sequential subcutaneous injections rather than one.
In Example 2, a 5% vehicle solution was prepared from 1.0 mL Tween-80 dissolved in 19.0 mL saline. […] The average pH was 3.8 and compound was dosed at a 10 mL/kg bodyweight volume. Drug solutions were prepared fresh on each dosing day before testing. All solutions were mixed or vortexed thoroughly before injections.
Subjects (N=25) were male C57BL/6J, purchased from Jackson Labs, and successfully trained for CAR. Mice were first tested in an aripiprazole dose response study comprised of VEH, 0.3, 1, 3, and 10 mg/kg (data not shown). Dose order was randomly assigned for each mouse. Mice were returned to their home cages for 30 minutes following injection to allow the drug to take effect before testing began.
To match the formulation procedure from Example 1 while maintaining an appropriate volume, a relatively high concentration aripiprazole stock was first made and then diluted to the target concentrations for dosing. A 5% Tween-80 solution was prepared from 2.0 mL Tween-80 dissolved in 38.0 mL of saline. A 3.0 mg/kg aripiprazole solution as a stock was prepared from 3.0 mg aripiprazole dissolved in 5.0 mL 5% Tween-80, giving a concentration of 0.6 mg/mL. At a dosing volume of 5 mL/kg, equaling 3.0 mg/kg. […] The average pH was 6.2. For 0.3 mg/kg aripiprazole, 0.6 mL of the 3 mg/kg aripiprazole stock was diluted in 5.4 mL of 5% Tween-80. For 0.1 mg/kg aripiprazole, 0.2 mL of the 3 mg/kg aripiprazole stock was dissolved in 5.8 mL of 5% Tween-80.
The 1.0 mg/kg xanomeline solution was prepared from 3.05 mg xanomeline dissolved in 10.0 mL of sterile water, giving a concentration of 0.2 mg/mL. At a dosing volume of 10 mL/kg, this equals 1.0 mg/kg. (The drug mass adjustment factor between xanomeline free base and xanomeline tartrate is 1.5262.) The average pH was 4.4.
Dose order was randomly assigned for each mouse. Injection 1 and Injection 2 occurred in sequence, with no gap time. Mice were returned to their home cages for 30 minutes following injection to allow the drugs to take effect before testing began. Mice were injected with vehicle (saline at 10 mL/kg SC and Tween-80 at 5 mL/kg IP) the day before dosing days. Mice were only dosed if their average percent avoidance values for the previous two non-dose days was >85%.
The study then evaluated the effect of blocking muscarinic receptors (via scopolamine) on the activity and efficacy of aripiprazole in the Conditioned Avoidance Response (CAR) assay. The aripiprazole solution was prepared as before. To prepare the 0.3 mg/kg scopolamine solution, 3.397 mg scopolamine was dissolved in 40 mL of saline. The actual drug weight of SCOP in this solution is 2.4 mg (adjusted by a factor 1.41499 for the salt content), giving a concentration of 0.06 mg/mL. At a dosing volume of 5 mL/kg, this equals 0.3 mg/kg. The average pH of this solution was 7.3.

[1] = Brain and plasma drug exposure collected after the LMA study; assay type: in vivo, mice
Text: After the experiment, plasma and brain tissue were collected to determine drug exposure.

[2] = tested on: MK-801-induced locomotor activity in C57BL/6J mice; assay: MK-801-induced locomotor activity (LMA) assay; assay type: in vivo
Text: In the CAR assay, mice were first trained to avoid a foot shock (i.e., crossing from one side of a shuttle box to another within 10 secs) to a performance criterion of ≥85% avoidance responses. A repeated-measures, counterbalanced design was used. Two experiments evaluated the effects of blocking central (with scopolamine) vs. peripheral (with N-methylscopolamine) muscarinic receptors. Additional experiments evaluated augmentation and synergy by combining dosing subthreshold doses of xanomeline plus risperidone or aripiprazole. “Subthreshold” of “sub-efficacious” refers to doses that are lower than the therapeutically effective amount for monotherapy but which could be effective in synergy with the antipsychotics tested.
In the LMA assay, varying doses of xanomeline and risperidone were co-formulated. […] After the experiment, plasma and brain tissue were collected to determine drug exposure.
Data are mean (±SEM) total distance traveled.

For `C[N+]1(C)[C@@H]2C[C@@H](OC(=O)[C@H](CO)c3ccccc3)C[C@H]1[C@@H]1O[C@@H]12` [N-methyl-scopolamine, N-methylscopolamine], the “Blockade of the activity of xanomeline in CAR” value (“Blockade … of xanomeline in CAR” for short) (Adult male C57BL/6J mice; 100-fold higher dose of N-methyl-scopolamine) was “failed to block the activity of xanomeline” and the “Blockade of xanomeline's effects in CAR by muscarinic antagonist” value (Adult male C57BL/6J mice) was “had no effect”.
For `CN1[C@@H]2C[C@@H](OC(=O)[C@H](CO)c3ccccc3)C[C@H]1[C@@H]1O[C@@H]12` [scopolamine], the “Blockade … of xanomeline in CAR” value (Adult male C57BL/6J mice; SCOP 0.03 mg/kg) was “partially blocks”, the “Blockade … of xanomeline in CAR” value (Adult male C57BL/6J mice; SCOP 0.1 mg/kg) was “fully” and the “Activity alone in CAR” value (Adult male C57BL/6J mice; SCOP 0.3 mg/kg) was “has no activity alone in CAR”. For the same molecule, the “Blockade of xanomeline's effects in CAR by muscarinic antagonist” value (Adult male C57BL/6J mice) was “dose-dependently blocked xanomeline's effects”, the “Reversal of xanomeline activity in CAR” value (Adult male C57BL/6J mice; scopolamine 0.3 mg/kg) was “fully reversed xanomeline activity” and the “Effect on risperidone's antipsychotic-like effect in CAR” value (Adult male C57BL/6J mice; scopolamine 0.3 mg/kg, FIG. 12, N=16) was “failed to attenuate”. For the same molecule, the “Effect of scopolamine on the activity of aripiprazole in CAR” value (male C57BL/6J mice; 0.3 mg/kg scopolamine SC 15 minutes before 3.0 mg/kg aripiprazole) was “slight, but statistically significant effect in reducing the activity of aripiprazole”.
For `O=C1CCc2ccc(OCCCCN3CCN(c4cccc(Cl)c4Cl)CC3)cc2N1` [Aripiprazole, aripiprazole], the “Average avoidance response percentages, A alone” value (Adult male C57BL/6J mice; aripiprazole 1 mg/kg alone) was 2%, the “Average avoidance response percentages, A alone” value (Adult male C57BL/6J mice; aripiprazole 3 mg/kg alone) was 6% and the “Effect on conditioned avoidance responding (dose-response, FIG. 1)” value (“Effect … (dose-response, FIG. 1)” below) (Adult male C57BL/6J mice) was “dose-dependently reduced conditioned avoidance responding”. For the same molecule, the “Avoidance responding versus vehicle-vehicle control, drug alone” value (Adult male C57BL/6J mice) was “did not significantly differ from vehicle-vehicle control conditions”, the “Average avoidance response percentages, A alone” value (male C57BL/6J mice; aripiprazole 0.1 mg/kg IP alone) was 14% and the “Average avoidance response percentages, A alone” value (male C57BL/6J mice; aripiprazole 0.3 mg/kg IP alone) was 31%. The “Effects on CAR activity endpoints” value (male C57BL/6J mice; aripiprazole 3 mg/kg IP, FIG. 18, N=15) was “robust effects on CAR activity endpoints”, the Escape failures (male C57BL/6J mice; aripiprazole 0.1, 0.3 mg/kg with or without xanomeline 1 mg/kg) was “No dose of aripiprazole or combination dose with xanomeline resulted in escape failures” and the “Disruption of CAR performance (dose response)” value (male C57BL/6J mice; aripiprazole 0.3, 1, 3 and 10 mg/kg, data not shown) was “effective at disrupting CAR performance in a dose-related manner”. For the same molecule, the Escape failures (male C57BL/6J mice; aripiprazole dose response study, 0.3-10 mg/kg) was “not evident at any doses” and the “ED50 in CAR” value (male C57BL/6J mice; aripiprazole dose response study, Example 2 formulation) was roughly 0.3 mg/kg.
For `CCCCCCOc1nsnc1C1=CCCN(C)C1` [Xanomeline, xanomeline], the “Xanomeline plasma exposure across the increasing doses of risperidone” value ([1]; co-dosed with risperidone) was “no significant increase”, the “Brain level of the named substance” value ([1]; treatment: MK-801 0.3 + risperidone 0.001 + xanomeline 1 mg/kg) was 143.4 ± 4.8 ng/g and the “Brain level of the named substance” value ([1]; treatment: MK-801 0.3 + risperidone 0.003 + xanomeline 1 mg/kg) was 154.6 ± 9.3 ng/g. For the same molecule, the “Brain level of the named substance” value ([1]; treatment: MK-801 0.3 + risperidone 0.01 + xanomeline 1 mg/kg, * p<0.05 vs xanomeline alone) was 184.9 ± 15.5* ng/g, the “Brain level of the named substance” value ([1]; treatment: MK-801 0.3 + xanomeline 1 mg/kg) was 126.0 ± 6.6 ng/g and the “Effect … (dose-response, FIG. 1)” value (Adult male C57BL/6J mice) was “dose-dependently reduced conditioned avoidance responding”. For the same molecule, the “Average avoidance response percentages, X alone” value (Adult male C57BL/6J mice; xanomeline 1 mg/kg alone, aripiprazole combination study (co-formulation, single SC injection), N=16) was 5%, the “Average avoidance response percentages, X alone” value (Adult male C57BL/6J mice; xanomeline 1 mg/kg alone, risperidone combination study, N=17) was 7% and the “Average avoidance response percentages, X alone” value (Adult male C57BL/6J mice; xanomeline 3 mg/kg alone, aripiprazole combination study) was 20%. For the same molecule, the “Activity in the CAR assay (percentage avoidance responses and latency to respond)” value (male C57BL/6J mice; 1 mg/kg dose alone) was “inactive in the CAR assay”, the “Average avoidance response percentages, X alone” value (male C57BL/6J mice; xanomeline 1 mg/kg SC alone, Example 2, N=16) was 6% and the “Activity alone against MK-801 stimulated activity” value ([2]; xanomeline 1 mg/kg alone) was “Inactive”.
With `Cc1nc2n(c(=O)c1CCN1CCC(c3noc4cc(F)ccc34)CC1)CCCC2` [Risperidone, risperidone] the “Effect … (dose-response, FIG. 1)” value (Adult male C57BL/6J mice) was “dose-dependently reduced conditioned avoidance responding”, the “Average avoidance response percentages, R alone” value (Adult male C57BL/6J mice; risperidone 0.03 mg/kg alone) was 5% and the “Average avoidance response percentages, R alone” value (Adult male C57BL/6J mice; risperidone 0.1 mg/kg alone) was 26%. For the same molecule, the “Average avoidance response percentages, R alone” value (Adult male C57BL/6J mice; risperidone 0.3 mg/kg alone) was 85%, the “Avoidance responding versus vehicle-vehicle control, drug alone” value (Adult male C57BL/6J mice) was “did not significantly differ from vehicle-vehicle control conditions” and the “Activity alone against MK-801 stimulated activity” value ([2]; risperidone 0.001 mg/kg alone) was “Inactive”.
